Source: paper PMC11062894, “Protein-based bandpass filters for controlling cellular signaling with chemical inputs” (Nature Chemical Biology, 2023)
“And” between values parts separate entries of the source, which are not always exact repeats. Equal values may be shown once.

Legend:
Bcl2 = settings: cited from earlier work
[1] = molecular target: GEMS with the dual-drug-controlled (venetoclax, A-1155463) switch (BclXL and Bcl2–LD3) in HEK293T cells (Homo sapiens, UniProt P10415); assay: GEMS SEAP reporter assay, dual-drug-controlled (venetoclax, A-1155463) switch; assay type: cell-based; settings: for SEAP (U/L): Figure 2f, OFF-phase
Procedure: (§1) HEK293T cells were seeded in a 96-well plate 24 h before transfection. The transfection mix in each well consisted of 3 ng of constitutive human CMV promoter driven mammalian STAT3 expression vector (PhCMV-STAT3-pA), 30 ng of STAT3-induced reporter expression (OStat3-PhCMVmin-SEAP-pA) and 50 ng of expression vectors for each GEMS receptor chain (PSV40-IgK-(drughigh receptor)-EpoRm-IL-6RBm-pA and PSV40-IgK-(druglow receptor-GGGGSX3-LD3)-EpoRm-IL-6RBm-pA). For the specific drughigh receptor and druglow receptor used in the different cellular assays, they are indicated as wild type or with mutations. Then, plasmid DNA was mixed with 50 μl opti-MEM (Thermo Fisher) and 600 ng of polyethyleneimine (Polysciences, catalog no. 24765-1). For drug treatment experiments, drugs were added 12 h post-transfection and incubated with cells for 24 h before the SEAP reporter detection assay.
(§2) SEAP activity (U l^−1) in cell culture supernatants was quantified by kinetic measurements at 405 nm (1 minute per measurement for 30 cycles) of absorbance increase due to phosphatase-mediated hydrolysis of para-nitrophenyl phosphate (pNPP).
(§3) Binding affinities of SPR drug competition assays were calculated using three-parameter nonlinear regression in GraphPad Prism (v.8.3.0). Representative data of cell assays are presented as individual values and mean values (bars). n = 3 refers to biological replicates. All IC50 or EC50 values of cell assays reported were calculated using four-parameter nonlinear regression ± s.d. Bandpass features of cutoff concentrations and Bandwidth90% were estimated based on the curve fitted using bell-shaped curve nonlinear regression in GraphPad Prism (v.8.3.0). […]

BclXL–LD3 interaction = BclXL–LD3 interaction (Homo sapiens, UniProt Q07817); assay: SPR drug competition assay, BclXL–LD3; assay type: binding; settings: for Normalization of Response units / Response units: BclXL, Supp Fig 2a
[2] = molecular target: GEMS with the dual-drug-controlled (A-1155463, venetoclax) switch (Bcl2 and BclXL–LD3) in HEK293T cells (Homo sapiens, UniProt P10415); assay: GEMS SEAP reporter assay, dual-drug-controlled (A-1155463, venetoclax) switch; assay type: cell-based; settings: for SEAP (U/L): Figure 2c, ON-phase
Excerpt: In the first step, we sought to construct a dual-drug-controlled switch to test whether the ON and OFF switching processes can be combined in our receptor architecture. We used Bcl2 and BclXL as the orthogonal drug receptors, which interact with the LD3 protein and respond to their own specific inhibitors. In such a setting, the dual-drug-controlled switch will turn ON in response to one drug and OFF in response to the other, thus mimicking bandpass filtering behavior (Supplementary Fig. 1d). […] To test the switch behavior, we employed the generalizable extracellular molecule sensor (GEMS) platform, which senses extracellular molecules and thus regulates cell surface signaling pathways (Fig. 2a). This receptor platform is based on a mutated EpoR extracellular and transmembrane domain fused to an IL-6RB intracellular domain. Dimerization of EpoR extracellular domains is controlled by N-terminally fused inducible dimerization domains, which drive IL-6RB activation and STAT3 signaling. The Bcl2 and BclXL–LD3 complexes were fused to the extracellular EpoR domains. […] The dimerization of Bcl2 and LD3 causes EpoR extracellular domain dimerization and triggers JAK/STAT3 signaling. Active STAT3 drives the expression of a reporter protein (secreted alkaline phosphatase (SEAP)) controlled by a STAT3-dependent promoter.
as §1, §2
Binding affinities of SPR drug competition assays were calculated using three-parameter nonlinear regression in GraphPad Prism (v.8.3.0). Representative data of cell assays are presented as individual values and mean values (bars). n = 3 refers to biological replicates. All IC50 or EC50 values of cell assays reported were calculated using four-parameter nonlinear regression ± s.d. Bandpass features of cutoff concentrations and Bandwidth90% were estimated based on the curve fitted using bell-shaped curve nonlinear regression in GraphPad Prism (v.8.3.0).

Bcl2–LD3 interaction = Bcl2–LD3 interaction (Homo sapiens, UniProt P10415); assay: SPR drug competition assay, Bcl2–LD3; assay type: binding; settings: for Normalization of Response units / Response units: Bcl2, Supp Fig 2a
Procedure: Drug IC50 values for disrupting heterodimers were measured on a Biacore 8K device. A 5 µM portion of analyte was mixed with 10 µM of BclXL or Bcl2 inhibitors according to the analyte. The mixtures of analyte and drug were injected onto the LD3 immobilized channel.
as §3
This assay is designed to test if the drug of interest can specifically disrupt the
interaction between LD3 and BclXL/Bcl2. The drug-receptors (Bcl2, BclXL) are immobilized on the
different channels of the sensor chip, then the binding sites are saturated with LD3. […]

[3] = Independent repeat, A-1155463 1 nM
[4] = Independent repeat, A-1155463 10 nM
[5] = Independent repeat, A-1155463 31.6 nM
[6] = Independent repeat, A-1155463 100 nM
[7] = Representative, A-1155463 10 nM
[8] = Representative, A-1155463 31.6 nM
[9] = Representative, A-1155463 100 nM
[10] = Representative, A-1155463 316 nM

Sequence of BclXL–LD3 interaction (Q07817 1-209 limits assumed): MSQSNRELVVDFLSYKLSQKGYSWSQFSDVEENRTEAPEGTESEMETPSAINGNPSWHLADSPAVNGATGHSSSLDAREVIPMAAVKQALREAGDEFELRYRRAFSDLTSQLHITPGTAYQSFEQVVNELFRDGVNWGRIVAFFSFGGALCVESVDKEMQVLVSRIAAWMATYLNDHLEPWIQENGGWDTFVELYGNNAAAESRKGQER
Sequence of Bcl2–LD3 interaction (P10415 1-207 limits assumed): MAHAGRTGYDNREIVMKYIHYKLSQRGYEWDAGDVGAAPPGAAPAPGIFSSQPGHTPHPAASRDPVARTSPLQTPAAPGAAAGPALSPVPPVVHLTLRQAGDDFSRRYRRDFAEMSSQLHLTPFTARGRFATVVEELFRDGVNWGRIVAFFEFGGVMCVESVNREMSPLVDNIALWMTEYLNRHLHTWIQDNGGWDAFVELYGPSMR
Sequence of GEMS with the dual-drug-controlled (venetoclax, A-1155463) switch (BclXL and Bcl2–LD3) in HEK293T cells (P10415 whole entry): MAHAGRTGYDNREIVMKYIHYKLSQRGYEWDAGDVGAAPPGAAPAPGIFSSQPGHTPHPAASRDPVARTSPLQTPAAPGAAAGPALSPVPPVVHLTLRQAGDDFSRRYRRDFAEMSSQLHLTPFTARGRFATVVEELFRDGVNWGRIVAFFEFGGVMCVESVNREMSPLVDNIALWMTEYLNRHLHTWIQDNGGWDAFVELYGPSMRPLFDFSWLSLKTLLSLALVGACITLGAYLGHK
Sequence of GEMS with the dual-drug-controlled (venetoclax, A-1155463) switch (BclXL and Bcl2–LD3) in HEK293T cells (Q07817 whole entry, further chain): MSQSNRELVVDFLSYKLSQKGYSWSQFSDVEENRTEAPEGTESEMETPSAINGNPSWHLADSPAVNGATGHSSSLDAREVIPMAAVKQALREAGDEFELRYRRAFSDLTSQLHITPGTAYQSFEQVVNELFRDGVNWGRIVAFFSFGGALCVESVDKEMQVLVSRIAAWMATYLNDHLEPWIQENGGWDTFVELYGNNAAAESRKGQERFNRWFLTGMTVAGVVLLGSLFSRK
Sequence of GEMS with the dual-drug-controlled (A-1155463, venetoclax) switch (Bcl2 and BclXL–LD3) in HEK293T cells (Q07817 whole entry): as the sequence (Q07817 whole entry, further chain) above
Sequence of GEMS with the dual-drug-controlled (A-1155463, venetoclax) switch (Bcl2 and BclXL–LD3) in HEK293T cells (P10415 whole entry): as the sequence (P10415 whole entry) above

SMILES: CN(C)CC#Cc1ccc(OCCCc2sc(N3CCc4cccc(C(=O)Nc5nc6ccccc6s5)c4C3)nc2C(=O)O)c(F)c1 [A-1155463]
- binding to Bcl2 weaker than to BclXL (Bcl2): more than 7,000 fold
- IC50 ([1]; A-1155463-controlled OFF phase): 103 nM
- decrease in the OFF phase ([1]; Fig 2e): close to tenfold
- SEAP (U/L) ([1]; Independent repeat2, A-1155463 0.001 nM): 136.822 U/L and 169.801 U/L and 176.875 U/L
- SEAP (U/L) ([1]; Independent repeat2, A-1155463 0.1 nM): 103.12 U/L and 204.542 U/L and 189.519 U/L
- SEAP (U/L) ([1]; Independent repeat2, A-1155463 1 nM): 92.9798 U/L and 167.805 U/L and 150.91 U/L
- SEAP (U/L) ([1]; Independent repeat2, A-1155463 10 nM): 77.7029 U/L and 130.847 U/L and 121.179 U/L
- SEAP (U/L) ([1]; Independent repeat2, A-1155463 31.6 nM): 58.2163 U/L and 85.6507 U/L and 74.3645 U/L
- SEAP (U/L) ([1]; Independent repeat2, A-1155463 100 nM): 37.6382 U/L and 39.3259 U/L and 34.7513 U/L
- SEAP (U/L) ([1]; Independent repeat2, A-1155463 316 nM): 10.089 U/L and 12.1866 U/L and 9.268 U/L
- SEAP (U/L) ([1]; Independent repeat2, A-1155463 1000 nM): 8.119 U/L and 8.577 U/L and 7.014 U/L
- SEAP (U/L) ([1]; Independent repeat, A-1155463 0.001 nM): 544.306 U/L and 608.147 U/L and 640.878 U/L
- SEAP (U/L) ([1]; Independent repeat, A-1155463 0.01 nM): 596.894 U/L and 605.557 U/L and 647.084 U/L
- SEAP (U/L) ([1]; Independent repeat, A-1155463 0.1 nM): 460.121 U/L and 563.478 U/L and 550.17 U/L
- SEAP (U/L) [1, 3]: 534.525 U/L and 587.537 U/L and 614.263 U/L
- SEAP (U/L) [1, 4]: 528.461 U/L and 563.236 U/L and 515.428 U/L
- SEAP (U/L) [1, 5]: 441.716 U/L and 544.633 U/L and 570.455 U/L
- SEAP (U/L) [1, 6]: 308.86 U/L and 496.735 U/L and 439.283 U/L
- SEAP (U/L) ([1]; Independent repeat, A-1155463 316 nM): 344.351 U/L and 390.049 U/L and 370.506 U/L
- SEAP (U/L) ([1]; Representative, A-1155463 0.001 nM): 452.056 U/L and 640.781 U/L and 545.972 U/L
- SEAP (U/L) ([1]; Representative, A-1155463 0.01 nM): 482.724 U/L and 651.317 U/L and 591.102 U/L
- SEAP (U/L) ([1]; Representative, A-1155463 0.1 nM): 443.461 U/L and 562.309 U/L and 475.562 U/L
- SEAP (U/L) ([1]; Representative, A-1155463 1 nM): 415.408 U/L and 516.033 U/L and 492.483 U/L
- SEAP (U/L) [1, 7]: 401.724 U/L and 506.387 U/L and 481.044 U/L
- SEAP (U/L) [1, 8]: 379.199 U/L and 421.639 U/L and 391.615 U/L
- SEAP (U/L) [1, 9]: 206.108 U/L and 261.394 U/L and 267.779 U/L
- SEAP (U/L) [1, 10]: 72.1001 U/L and 78.6193 U/L and 80.8054 U/L
- SEAP (U/L) ([1]; Representative, A-1155463 1000 nM): 15.1572 U/L and 16.9337 U/L and 16.4073 U/L
- Normalization of Response units (BclXL–LD3 interaction; A11 0.01): 102.002
- Response units (BclXL–LD3 interaction; A11 0.01): 136.071
- Normalization of Response units (BclXL–LD3 interaction; A11 0.1): 97.9313
- Response units (BclXL–LD3 interaction; A11 0.1): 130.64
- Normalization of Response units (BclXL–LD3 interaction; A11 1): 94.098
- Response units (BclXL–LD3 interaction; A11 1): 125.527
- Normalization of Response units (BclXL–LD3 interaction; A11 10): 84.7556
- Response units (BclXL–LD3 interaction; A11 10): 113.064
- Normalization of Response units (BclXL–LD3 interaction; A11 100): 61.7671
- Response units (BclXL–LD3 interaction; A11 100): 82.3973
- Normalization of Response units (BclXL–LD3 interaction; A11 1000): 27.7573
- Response units (BclXL–LD3 interaction; A11 1000): 37.0282
- Normalization of Response units (BclXL–LD3 interaction; A11 10000): 14.6141
- Response units (BclXL–LD3 interaction; A11 10000): 19.4952
- IC50 (BclXL–LD3 interaction; prevents BclXL from binding to LD3): 106 nM
- EC50 ([2]; A-1155463 dose response, SEAP, read-out: EC50 of the ON phase): 23 nM
- SEAP (U/L) [2, 3]: 42.7182 U/L and 41.8919 U/L and 38.4512 U/L
- SEAP (U/L) [2, 4]: 156.072 U/L and 146.503 U/L and 188.411 U/L
- SEAP (U/L) [2, 5]: 331.126 U/L and 300.096 U/L and 322.732 U/L
- SEAP (U/L) [2, 6]: 407.571 U/L and 388.702 U/L and 469.003 U/L
- SEAP (U/L) ([2]; Representative, A-1155463 1 nM): 15.8426 U/L and 13.5232 U/L and 13.6294 U/L
- SEAP (U/L) [2, 7]: 26.67 U/L and 26.9995 U/L and 28.8916 U/L
- SEAP (U/L) [2, 8]: 53.4598 U/L and 53.7585 U/L and 50.2237 U/L
- SEAP (U/L) [2, 9]: 77.0863 U/L and 99.712 U/L and 86.8586 U/L
- SEAP (U/L) [2, 10]: 74.2135 U/L
- Normalization of Response units (Bcl2–LD3 interaction; A11 0.01): 92.1843
- Response units (Bcl2–LD3 interaction; A11 0.01): 21.2577
- Normalization of Response units (Bcl2–LD3 interaction; A11 0.1): 80.8291
- Response units (Bcl2–LD3 interaction; A11 0.1): 18.6392
- Normalization of Response units (Bcl2–LD3 interaction; A11 1): 73.8912
- Response units (Bcl2–LD3 interaction; A11 1): 17.0393
- Normalization of Response units (Bcl2–LD3 interaction; A11 10): 65.6037
- Response units (Bcl2–LD3 interaction; A11 10): 15.1282
- Normalization of Response units (Bcl2–LD3 interaction; A11 100): 63.1974
- Response units (Bcl2–LD3 interaction; A11 100): 14.5733
- Normalization of Response units (Bcl2–LD3 interaction; A11 1000): 71.7979
- Response units (Bcl2–LD3 interaction; A11 1000): 16.5566
- Normalization of Response units (Bcl2–LD3 interaction; A11 10000): 76.7051
- Response units (Bcl2–LD3 interaction; A11 10000): 17.6882
- effect on the Bcl2–LD3 interaction (Bcl2–LD3 interaction; SPR drug competition): does not affect
